# Experimental data from US20200223837A1, “BENZOFURAN AMIDES AND HETEROAROMATIC ANALOGUES THEREOF FOR USE IN THERAPY” (European Molecular Biology Laboratory, priority 2017, published 2020).
# Assays:
# pirin = molecular target: T1, pirin (Homo sapiens, UniProt O00625); test: Nano differential scanning fluorimetry (NanoDSF), thermal melting of pirin; details: 10 μM pirin in PBS, 20 μM test compound
# T1 sequence (O00625 1-290): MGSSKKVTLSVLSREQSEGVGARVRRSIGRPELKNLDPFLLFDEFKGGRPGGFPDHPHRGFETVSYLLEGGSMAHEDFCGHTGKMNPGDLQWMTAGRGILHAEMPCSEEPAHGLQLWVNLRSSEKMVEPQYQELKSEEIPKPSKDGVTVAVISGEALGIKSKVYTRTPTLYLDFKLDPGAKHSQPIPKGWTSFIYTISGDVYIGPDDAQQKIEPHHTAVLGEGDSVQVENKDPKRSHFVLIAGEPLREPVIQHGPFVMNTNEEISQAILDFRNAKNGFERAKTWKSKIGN
# Description: NanoDSF is an advanced Differential Scanning Fluorimetry method for measuring protein stability using intrinsic tryptophan or tyrosine fluorescence. The fluorescence of the tryptophans and tyrosines in a protein is strongly dependent on their close surroundings. Changes in protein structure typically affect both the intensity and the emission wavelength especially of tryptophan fluorescence. By measuring fluorescence intensity at 330 nm and 350 nm, the change in fluorescence intensity and the shift of the fluorescence maximum upon unfolding can be used to detect thermal melting of the protein. Proteins are stabilized when associated with ligands and show a shift in their melting temperatures. NanoDSF has the advantages of being label free and observing the protein in solution.
# A 10 μM solution of pirin in phosphate buffered saline, with or without 20 μM test compound, is subject to thermal denaturation under fluorescence monitoring using a Prometheus NT.48 instrument of NanoTemper Technologies. Unliganded pirin has a complex biphasic melting curve. […] If the test compound is a ligand to pirin, it adopts a single thermal transition some 10° C. above that of apopirin.
# Microsomal stability = assay type: in vitro ADME; details: mouse liver microsomes, 2 μM test compound, 37° C.
# Experimental: Mouse hepatic microsomes were isolated from pooled (50), perfused livers of Balb/c male mice according to the standard protocol (Hill, J. R. in Current Protocols in Pharmacology 7.8.1-7.8.11, Wiley Interscience, 2003). The batch of microsomes was tested for quality control using Imipramine, Propranolol and Verapamil as reference compounds. Microsomal incubations were carried out in 96-well plates in 5 aliquots of 40 μL each (one for each time point). Liver microsomal incubation medium contained PBS (100 mM, pH 7.4), MgCl2 (3.3 mM), NADPH (3 mM), glucose-6-phosphate (5.3 mM), glucose-6-phosphate dehydrogenase (0.67 units/ml) with 0.42 mg of liver microsomal protein per ml. Control incubations were performed replacing the NADPH-cofactor system with PBS.
# Test compound (2 μM, final solvent concentration 1.6%) is incubated with microsomes at 37° C., shaking at 100 rpm. Incubations are performed in duplicates. Five time points over 40 minutes are analyzed. The reactions are stopped by adding 12 volumes of 90% acetonitrile-water to incubation aliquots, followed by protein sedimentation by centrifuging at 5500 rpm for 3 minutes. Supernatants are analyzed using the HPLC system coupled with tandem mass spectrometer. The elimination constant (kel), half-life (t½) and intrinsic clearance (Clint) is determined in plot of In(AUC) versus time, using linear regression analysis.
# EGR1 promoter = test: EGR1 reporter assay (luciferase) in genomically engineered HeLa cell line; assay type: cell-based; details: Homo sapiens; EGR1 reporter HeLa cells, luciferase activity after 24 hours with compound
# Summary of the method: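 HeLa cells with eGFP-P2A-luciferase knocked in by CRISPR behind the endogenous EGR1 promoter, seeded 2000/well in DMEM with 10% FCS for 24 h. Cells treated 24 h with an 11-point 1:3 series from 100 μM initial DMSO dilution. Readout: luciferase bioluminescence.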
# [1] = tested on: patient derived CLL samples; test: Growth inhibition of cells derived from patients with CLL; assay type: cell-based; details: 27 patient derived CLL isolates; for EC50: Homo sapiens, read-out: median EC50
# Experimental: HeLa, A549 and HCT116 cells were grown in high-glucose Dulbecco's Modified Eagle's Medium (DMEM, Sigma)+10% FBS+1% penicillin and streptomycin+1% L-glutamine, at 37° C. with 5% CO2 and 95% humidity. Cytotoxic screening of the ProQinase panel of 100 cell-lines was performed by ProQinase (Freiburg, Germany). Patient derived CLL isolates were prepared and screened as described by Dietrich et al. (S. Dietrich et al., J Clin Invest, 2018, 128(1), 427-445). Cell viability was determined after 48 hours using the ATP-based CellTiter Glo assay (Promega). Luminescence was measured with a Tecan Infinite F200 Microplate Reader (Tecan Group AG) and with an integration time of 0.2 seconds per well.
# The response of 97 tumour samples derived from patients with CLL was investigated. All samples tumor cells were obtained from whole blood, subjected to Ficoll-Isopaque density centrifugation. CD19+B and CD3+ T cells were isolated by positive magnetic cell separation (Miltenyi Biotec). Sorted cells were checked for purity by fluorescence-activated cell sorting (FACS) with CD19/CD20 for healthy control samples and CD19/CD20/CD5 for CLL samples (BD Biosciences). Following sorting, all samples with a CD19/CD20/CD5 purity <98% were subjected to additional sorting, and the average final purity of all sorted samples was >99%. CLL samples with >[…] were not subject to purification.
# Cells are incubated for three days with an eight-point three-fold titration series of the test compound from an initial concentration of 30 μM (2000 cells per well in a volume of 50 μl). Cellular viability is estimated by the addition of 25 μL of ATPlite (Perkin Elmer) with the resulting luminescence measured using an EnVision Xcite plate reader (Perkin Elmer).
# In addition, the growth inhibitory response of a selection of 27 patient derived CLL isolates (S. Dietrich et al., J Clin Invest, 2018, 128(1), 427-445) against the compounds of examples 64 and 85 was evaluated using the procedure as described above.
Compound,increase in the Tm of melting (pirin),microsomal stability (Microsomal stability),EC50 (EGR1 promoter),growth inhibitory response [1],EC50 [1]
"Cc1cnc(NC(=O)Cc2coc3cc4c(cc23)CCC4)s1 [Example 64, 2-(6,7-Dihydro-5H-cyclopenta[f]benzofuran-3-yl)-N-(5-methylthiazol-2-yl)acetamide]",approximately 11 °C,10 min,0.01 to 10 µM,active against all isolates,6 µM
"O=C(Cc1coc2c(Cl)c(Cl)ccc12)Nc1ncc(C(F)(F)F)s1 [Example 85, 2-(6,7-Dichlorobenzofuran-3-yl)-N-[5-(trifluoromethyl)thiazol-2-yl]acetamide]",approximately 11 °C,113 min,0.01 to 10 µM,active against all isolates,1.67 µM
